“And” between values parts separate entries of the source, which are not always exact repeats. Equal values may be shown once.
How the values were obtained:
hCB2R = target: T1, hCB2R (Homo sapiens, UniProt P34972); test: [3H]RO6957022 competition association assay; format: binding; details: for percentage specific [3H]RO6957022 binding (competition association): individual replicates
T1 construct: host or cells: CHO-K1 (CHOK1_hCB2bgal, PathHunter), membranes

CB2R WT = CB2R WT (Homo sapiens, UniProt P34972); test: [35S]GTPγS G protein activation assay, CB2R WT; format: biochemical; details: for Emax (%): CB2R WT; for [35S]GTPγS binding, percentage of CP55,940: individual replicates
CB2R-I110^3.29L = CB2R-I110^3.29L (Homo sapiens, UniProt P34972, I110L); test: [35S]GTPγS assay, CB2R I110L mutant; format: biochemical; details: for [35S]GTPγS binding: I1103.29L, individual replicates
CB2R-F117^3.36A = CB2R-F117^3.36A (Homo sapiens, UniProt P34972, F117A); test: [35S]GTPγS assay, CB2R F117A mutant; format: biochemical
CB2R-L185^ECL2H = CB2R-L185^ECL2H (Homo sapiens, UniProt P34972, L185H); test: [35S]GTPγS assay, CB2R L185H mutant; format: biochemical; details: L185H mutant
CB2R-Quadruple^TM1,7 = CB2R-Quadruple^TM1,7 (Homo sapiens, UniProt P34972, C40S/K279T/K33Q/V36I); test: [35S]GTPγS assay, CB2R quadruple mutant; format: biochemical; details: for [35S]GTPγS binding: QuadrupleTM1,7, individual replicates
CB2R-Quadruple^TM1,7, sequence (P34972 whole entry K33Q/V36I/C40S/K279T): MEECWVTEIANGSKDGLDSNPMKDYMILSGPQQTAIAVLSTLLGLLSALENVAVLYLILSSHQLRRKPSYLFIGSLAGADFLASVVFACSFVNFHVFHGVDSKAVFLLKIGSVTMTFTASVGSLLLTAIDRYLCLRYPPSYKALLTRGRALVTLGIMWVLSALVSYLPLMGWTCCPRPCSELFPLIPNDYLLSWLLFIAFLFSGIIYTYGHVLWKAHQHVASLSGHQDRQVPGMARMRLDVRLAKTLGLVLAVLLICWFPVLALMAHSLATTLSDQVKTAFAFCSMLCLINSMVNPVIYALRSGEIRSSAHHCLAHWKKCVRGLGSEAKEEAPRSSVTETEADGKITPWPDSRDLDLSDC

CB2R-F117^3.36A, sequence (P34972 whole entry F117A): as the sequence (P34972 whole entry K33Q/V36I/C40S/K279T) above, with Q33K, I36V, S40C, F117A, T279K counted along it
CB2R-I110^3.29L, sequence (P34972 whole entry I110L): as the sequence (P34972 whole entry K33Q/V36I/C40S/K279T) above, with Q33K, I36V, S40C, I110L, T279K counted along it
CB2R WT, sequence (P34972 whole entry): as the sequence (P34972 whole entry K33Q/V36I/C40S/K279T) above, with Q33K, I36V, S40C, T279K counted along it
T1 sequence (P34972 whole entry): as the sequence (P34972 whole entry K33Q/V36I/C40S/K279T) above, with Q33K, I36V, S40C, T279K counted along it
CB2R-L185^ECL2H, sequence (P34972 whole entry L185H): as the sequence (P34972 whole entry K33Q/V36I/C40S/K279T) above, with Q33K, I36V, S40C, L185H, T279K counted along it

SMILES: CC(C)CN1C(=O)CN(Cc2ccc(-c3ccc(F)c(CNC4CCOCC4)n3)cc2)C1=O [LEI-102, 1-(4-(5-fluoro-6-(((tetrahydro-2H-pyran-4-yl)amino)methyl)pyridin-2-yl)benzyl)-3-isobutylimidazolidine-2,4-dione]
- Kd (hCB2R; KD = koff/kon, read-out: Kinetic KD): 16.5 nM
- residence time (hCB2R; RT = 1/(60 ∙ koff)): 16 min
- percentage specific [3H]RO6957022 binding (competition association) (hCB2R; Time 1 min): 5.83% and -3.44% and 7.40%
- percentage specific [3H]RO6957022 binding (competition association) (hCB2R; Time 3 min): 23.25% and 21.50% and 9.87%
- percentage specific [3H]RO6957022 binding (competition association) (hCB2R; Time 5 min): 29.56% and 33.35% and 22.10%
- percentage specific [3H]RO6957022 binding (competition association) (hCB2R; Time 7 min): 39.12% and 26.72% and 31.06%
- percentage specific [3H]RO6957022 binding (competition association) (hCB2R; Time 10 min): 41.53% and 33.11% and 35.03%
- percentage specific [3H]RO6957022 binding (competition association) (hCB2R; Time 20 min): 47.20% and 49.02% and 32.99%
- percentage specific [3H]RO6957022 binding (competition association) (hCB2R; Time 30 min): 52.67% and 57.37% and 51.93%
- percentage specific [3H]RO6957022 binding (competition association) (hCB2R; Time 45 min): 51.61% and 58.35% and 49.36%
- percentage specific [3H]RO6957022 binding (competition association) (hCB2R; Time 60 min): 51.74% and 74.63% and 45.92%
- percentage specific [3H]RO6957022 binding (competition association) (hCB2R; Time 90 min): 53.57% and 66.52% and 52.04%
- percentage specific [3H]RO6957022 binding (competition association) (hCB2R; Time 120 min): 61.01% and 70.76% and 73.93%
- ET (engagement time) (hCB2R; at 1 µM agonist, ET = 1/(kon ∙ 1 × 10-6)): 16.0 ± 2.82 s
- Emax (%) (CB2R WT; maximum effect at 10 µM compared to WT (Suppl. Table 6)): 103 ± 3%
- Emax (%) (CB2R WT; maximum effect compared to CP55,940): 76 ± 1%
- EC50 (CB2R WT; [35S]GTPγS, HEK293T membranes transiently expressing CB2R WT): 126 nM
- [35S]GTPγS binding, percentage of CP55,940 (CB2R WT; log [agonist] (M) -5): 76.96% and 72.92% and 77.27%
- [35S]GTPγS binding, percentage of CP55,940 (CB2R WT; log [agonist] (M) -6): 47.32% and 54.96% and 57.48%
- [35S]GTPγS binding, percentage of CP55,940 (CB2R WT; log [agonist] (M) -7): 8.09% and 19.22% and 13.61%
- [35S]GTPγS binding, percentage of CP55,940 (CB2R WT; log [agonist] (M) -8): 7.23% and 9.98% and 7.81%
- [35S]GTPγS binding, percentage of CP55,940 (CB2R WT; log [agonist] (M) -9): -12.88% and -8.32% and -11.10%
- [35S]GTPγS binding, percentage of CP55,940 (CB2R WT; log [agonist] (M) -10): -4.61% and 18.64% and -19.45%
- EC50 (CB2R-I110^3.29L; I110L mutant, HEK293T membranes): 15.8 nM
- Emax (%) (CB2R-I110^3.29L; I110L mutant, at 10 µM compared to WT): 91 ± 3%
- [35S]GTPγS binding (CB2R-I110^3.29L; log [ligand] (M) -5): 91.04 percentage of WT and 85.60 percentage of WT and 97.60 percentage of WT
- [35S]GTPγS binding (CB2R-I110^3.29L; log [ligand] (M) -6): 71.11 percentage of WT and 90.00 percentage of WT and 68.00 percentage of WT
- [35S]GTPγS binding (CB2R-I110^3.29L; log [ligand] (M) -7): 49.89 percentage of WT and 105.60 percentage of WT and 64.50 percentage of WT
- [35S]GTPγS binding (CB2R-I110^3.29L; log [ligand] (M) -8): 38.52 percentage of WT and 44.70 percentage of WT and 17.20 percentage of WT
- [35S]GTPγS binding (CB2R-I110^3.29L; log [ligand] (M) -9): 9.93 percentage of WT and -16.00 percentage of WT and -7.20 percentage of WT
- [35S]GTPγS binding (CB2R-I110^3.29L; log [ligand] (M) -10): -2.60 percentage of WT and -2.20 percentage of WT and -32.20 percentage of WT
- Emax (%) (CB2R-F117^3.36A; F117A mutant, at 10 µM compared to WT): 11 ± 11%
- [35S]GTPγS binding (CB2R-F117^3.36A; F1173.36A, log [ligand] (M) -5, individual replicates): -10.74 percentage of WT and 22.02 percentage of WT and 22.63 percentage of WT
- EC50 (CB2R-L185^ECL2H; HEK293T membranes): 126 nM
- Emax (%) (CB2R-L185^ECL2H; at 10 µM compared to WT): 217 ± 21%
- EC50 (CB2R-Quadruple^TM1,7; Quadruple TM1,7 mutant, <5 when curve fit not finished): 631 nM
- Emax (%) (CB2R-Quadruple^TM1,7; Quadruple TM1,7 mutant, at 10 µM compared to WT): 27 ± 5%
- [35S]GTPγS binding (CB2R-Quadruple^TM1,7; log [ligand] (M) -5): 19.02 percentage of WT and 26.25 percentage of WT and 35.32 percentage of WT
- [35S]GTPγS binding (CB2R-Quadruple^TM1,7; log [ligand] (M) -6): 18.24 percentage of WT and 27.33 percentage of WT and 15.57 percentage of WT
- [35S]GTPγS binding (CB2R-Quadruple^TM1,7; log [ligand] (M) -7): -20.33 percentage of WT and 5.34 percentage of WT

Reference: PMC10017709, “Structural basis of selective cannabinoid CB2 receptor activation” (Nature Communications, 2023)
